Measured values: patent US20070092577A1, “Dietary calcium for reducing the production of reactive oxygen species” (University of Tennessee Research Foundation, priority 2005, published 2007)

Key:
[1] = test system: Mitochondrial potential in cultured wild-type 3T3-L1 adipocytes; experiment: Mitochondrial membrane potential (JC-1); type: cell-based, murine; settings: H2O2 100 nmol/L, 48 hours
Method: (§1) 3T3-L1 preadipocytes were incubated at a density of 8000 cells/cm^2 (10 cm^2 dish) and grown in Dulbecco's modified Eagle's medium (DMEM) containing 10% FBS and antibiotics (adipocyte medium) at 37° C. in 5% CO2 in air. Confluent preadipocytes were induced to differentiate with a standard differentiation medium consisting of DMEM-F 10 (1:1, vol/vol) medium supplemented with 1% FBS, 1 μM dexamethasone, IBMX (0.5 mM) and antibiotics (1% Penicillin-Streptomycin). Preadipocytes were maintained in this differentiation medium for 3 days and subsequently cultured in adipocyte medium. Cultures were re-fed every 2-3 days to allow 90% of cells to reach full differentiation before conducting chemical treatment. Chemicals were freshly diluted in adipocyte medium before treatment. […] Cell viability was measured via trypan blue exclusion.
Mitochondrial membrane potential was analyzed fluorometrically with a lipophilic cationic dye JC-1 (5,5′,6,6′-tetrachloro-1,1′,3,3′-tetraethylbenzimidazol carbocyanine iodide) using a mitochondrial potential detection kit (Biocarta, San Diego, Calif.). Mitochondrial potential was determined as the ratio of red fluorescence (excitation 550 nm, emission 600 mn) and green fluorescence (excitation 485 nm, emission 535 nm) using a fluorescence microplate reader.

NADPH oxidase = NADPH oxidase expression in 3T3-L1 adipocytes; type: cell-based, murine; settings: added to glucose 30 mmol/L, 48 hours; nifedipine 10 μmol/L
Method: as §1, with “exclusion. Adipocyte 18s, cyclin A, NADPH oxidase, and UCP2 were quantitatively measured using a Smart Cycler Real Time PCR System (Cepheid, Sunnyvale, Calif.) with a TaqMan 1000 Core Reagent Kit (Applied Biosystems, Branchburg, N.J.). […] Reactions of quantitative RT-PCR for standards and unknown samples were also performed according to the instructions of Smart Cycler System (Cepheid, Sunnyvale, Calif.) and TaqMan Real Time PCR Core Kit (Applied Biosystems, Branchburg, N.J.). The mRNA quantitation for each sample was further normalized using the corresponding 18s quantitation.” for “exclusion.”

IL-8 = IL-8 expression in differentiated Zen-bio human adipocytes; type: cell-based; settings: 10 nmol/L, 48 h; p<0.001
Method: Human pre-adipocytes used in this study were supplied by Zen-Bio (Research Triangle, N.C.). […] The cells are isolated from the stromal vascular fraction of human subcutaneous adipose tissue and differentiated in vitro as follows: […] Preadipocytes were maintained in this differentiation medium for 3 days and subsequently cultured in adipocyte medium in which BRL49653 and MIX were omitted. Cultures were re-fed every 2-3 days till fully differentiated. Cells were incubated in serum free medium overnight before chemical treatment. Chemicals were freshly diluted in adipocyte medium before treatment. […] Cell viability was measured via trypan blue exclusion. Adipocyte and muscle 18s, TNFα, IL-6, IL-8, IL-15 and adiponectin were quantitatively measured using a smart cycler real-time PCR system (Cepheid, Sunnyvale, Calif.) with a TaqMan 1000 Core Reagent Kit (Applied Biosystems, Branchburg, N.J.). […] Reactions of quantitative RT-PCR for standards and unknown samples were also performed according to the instructions of Smart Cycler System (Cepheid, Sunnyvale, Calif.) and TaqMan Real Time PCR Core Kit (Applied Biosystems, Branchburg, N.J.). The mRNA quantitation for each sample was further normalized using the corresponding 18s quantitation.

MIF = MIF expression in human adipocytes; type: cell-based; settings: calcitriol 10 nmol/L, 48 hours; p=0.001
Text: Cell culture: Human preadipocytes used in this study were supplied by Zen-Bio (Research Triangle, N.C.). Preadipocytes were inoculated in DMEM/Ham's F-10 medium (DMEM-F10) (1:1, vol/vol) containing 10% FBS, 15 mmol/L HEPES, and antibiotics at a density of 30,000 cells/cm^2. Confluent monolayers of preadipocytes were induced to differentiate with a standard differentiation medium consisting of DMEM-F 10 (1:1, vol/vol) medium supplemented with 15 mmol/L HEPES, 3% FBS, 33 μmol/L biotin, 17 μmol/L pantothenate, 100 nmol/L insulin, […] methylisobutylxanthine, 1 μmol/L dexamethasone, 1 μmol/L BRL49653, and antibiotics. […]
Cells were washed with fresh adipocyte medium, re-fed with medium containing the indicated treatments, and incubated at 37° C. in 5% CO2 for 48 hours before analysis. Cell viability was measured via trypan blue exclusion.
Adipocyte and muscle 18s, CD14, TNFα, MIP, M-CSF, IL-6 and MCP-1 were quantitatively measured using a Smart Cycler Real Time PCR System (Cepheid, Sunnyvale, Calif.) with a TaqMan 1000 Core Reagent Kit (Applied Biosystems, Branchburg, N.J.). […] Reactions of quantitative RT-PCR for standards and unknown samples were also performed according to the instructions of Smart Cycler System (Cepheid, Sunnyvale, Calif.) and TaqMan Real Time PCR Core Kit (Applied Biosystems, Branchburg, N.J.). […]

## OO [H2O2, hydrogen peroxide]
[1]
  increase of mitochondrial potential: 72%

## C=C1/C(=C\C=C2/CCC[C@]3(C)[C@@H]([C@H](C)CCCC(C)(C)O)CC[C@@H]23)C[C@@H](O)C[C@@H]1O [calcitriol, 1, 25-Dihydroxyvitamin D]
NADPH oxidase
  effect on NADPH oxidase expression: stimulated
IL-8
  stimulation of IL-8 expression: 49%
MIF
  increase of MIF expression: 59%
